Several values for one entry are separate records, joined by “and”; a condition that tells them apart may be missing. Equal values may be shown once. Toxic doses and inconclusive results are not listed.
Tested on: P388 leukemia ip, CD2F1 mice, survival T/C
Experiment: NCI In Vivo Anticancer Drug Screen. Data for tumor model P388 Leukemia (intraperitoneal) in CD2F1 (CDF1) mice
Details: endpoint: median survival time, higher = longer survival
How it was run: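 Mice carrying the transplanted tumor received test compound or vehicle. Survival was recorded in each group, and the value is the treated-group measurement divided by that of the vehicle-treated control group.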

[1] = dose: 100.0 mg/kg/injection, schedule: Q04DX003 (ip), vehicle: saline
[2] = dose: 200.0 mg/kg/injection, schedule: Q04DX003 (ip), vehicle: saline
[3] = dose: 400.0 mg/kg/injection, schedule: Q04DX003 (ip), vehicle: saline
[4] = dose: 12.5 mg/kg/injection, schedule: Q01DX009 (ip), vehicle: other
[5] = dose: 25.0 mg/kg/injection, schedule: Q01DX009 (ip), vehicle: other
[6] = dose: 50.0 mg/kg/injection, schedule: Q01DX009 (ip), vehicle: other
[7] = dose: 100.0 mg/kg/injection, schedule: Q01DX009 (ip), vehicle: other
[8] = dose: 12.5 mg/kg/injection, schedule: Q01DX009 (ip), vehicle: Klucel (hydroxypropylcellulose) (HPC)
[9] = dose: 25.0 mg/kg/injection, schedule: Q01DX009 (ip), vehicle: Klucel (hydroxypropylcellulose) (HPC)
[10] = dose: 50.0 mg/kg/injection, schedule: Q01DX009 (ip), vehicle: Klucel (hydroxypropylcellulose) (HPC)
[11] = dose: 50.0 mg/kg/injection, schedule: Q01DX009 (ip), vehicle: saline with Tween-80
[12] = dose: 200.0 mg/kg/injection, schedule: Q01DX009 (ip), vehicle: saline with Tween-80
[13] = dose: 100.0 mg/kg/injection, schedule: Q01DX001 (ip), vehicle: saline
[14] = dose: 50.0 mg/kg/injection, schedule: Q01DX005 (ip), vehicle: saline with Tween-80
[15] = dose: 100.0 mg/kg/injection, schedule: Q01DX005 (ip), vehicle: saline with Tween-80
[16] = dose: 200.0 mg/kg/injection, schedule: Q01DX005 (ip), vehicle: saline with Tween-80
[17] = dose: 100.0 mg/kg/injection, schedule: Q01DX009 (ip), vehicle: Klucel (hydroxypropylcellulose) (HPC)
[18] = dose: 200.0 mg/kg/injection, schedule: Q01DX009 (ip), vehicle: Klucel (hydroxypropylcellulose) (HPC)

## O=C(O)CCN(Cc1ccccc1)Cc1ccccc1
[1]
  T/C: 100 % of control
[2]
  T/C: 100 % of control
[3]
  T/C: 109 % of control

## O=C(Nc1cnns1)c1ccccc1
[4]
  T/C: 105 % of control
[5]
  T/C: 99 % of control
[6]
  T/C: 102 % of control
[7]
  T/C: 105 % of control
dose: 200.0 mg/kg/injection, schedule: Q01DX009 (ip), vehicle: other
  T/C: 89 % of control

## CC(=O)Nc1ccc(C(F)(F)F)cc1
dose: 25.0 mg/kg/injection, schedule: Q01DX009 (ip), vehicle: suspension in saline
  T/C: 94 % of control
dose: 50.0 mg/kg/injection, schedule: Q01DX009 (ip), vehicle: suspension in saline
  T/C: 94 % of control
dose: 100.0 mg/kg/injection, schedule: Q01DX009 (ip), vehicle: suspension in saline
  T/C: 86 % of control

## CCOc1ccc(-n2c(C)c(COC(=O)NC)c(COC(=O)NC)c2C)cc1
[8]
  T/C: 152 % of control and 166 % of control
[9]
  T/C: 150 % of control
[10]
  T/C: 109 % of control

## CCOC(=O)C1(c2ccccc2)SC(C(=O)OCC)(c2ccccc2)S1 (stereo not given)
[1]
  T/C: 112 % of control
[2]
  T/C: 107 % of control
[3]
  T/C: 103 % of control

## CC(C)(C)NC=C(C#N)C#N
[11]
  T/C: 86 % of control

## COc1ccc2nc3cc(Cl)ccc3c(Nc3cccc(NC(C)=O)c3)c2n1
dose: 6.25 mg/kg/injection, schedule: Q01DX009 (ip), vehicle: other
  T/C: 108 % of control
[4]
  T/C: 102 % of control
[5]
  T/C: 102 % of control
[6]
  T/C: 98 % of control
[7]
  T/C: 99 % of control

## OCCc1cc[nH]c1
dose: 100.0 mg/kg/injection, schedule: Q01DX009 (ip), vehicle: saline with Tween-80
  T/C: 104 % of control
[12]
  T/C: 104 % of control
dose: 400.0 mg/kg/injection, schedule: Q01DX009 (ip), vehicle: saline with Tween-80
  T/C: 95 % of control

## COc1c2occc2c(CSC(=N)N)c2ccc(=O)oc12
dose: 25.0 mg/kg/injection, schedule: Q01DX001 (ip), vehicle: saline
  T/C: 105 % of control
dose: 50.0 mg/kg/injection, schedule: Q01DX001 (ip), vehicle: saline
  T/C: 100 % of control
[13]
  T/C: 100 % of control

## CCOP(=O)(OCC)c1ncn(Cc2ccccc2)c1N
[13]
  T/C: 97 % of control
dose: 200.0 mg/kg/injection, schedule: Q01DX001 (ip), vehicle: saline
  T/C: 104 % of control
dose: 400.0 mg/kg/injection, schedule: Q01DX001 (ip), vehicle: saline
  T/C: 101 % of control

## O=C(c1ccco1)N1CCN(C(=O)c2ccco2)CC1
[14]
  T/C: 104 % of control
[15]
  T/C: 96 % of control
[16]
  T/C: 100 % of control

## CN(C)C(=S)S(=O)(=O)c1ccccc1
[8]
  T/C: 123 % of control
[9]
  T/C: 123 % of control
[10]
  T/C: 123 % of control

## O=C(CBr)N1c2ccccc2Sc2ccc3ccccc3c21
dose: 25.0 mg/kg/injection, schedule: Q01DX009 (ip), vehicle: saline with Tween-80
  T/C: 110 % of control and 120 % of control
[11]
  T/C: 122 % of control

## CC1(C(=O)O)CCC2(C)CCC3(C)C(=CC(=O)C4C5(C)CCC(O)C(C)(C)C5CCC43C)C2C1 (stereo not given)
[9]
  T/C: 95 % of control
[10]
  T/C: 100 % of control
dose: 50.0 mg/kg/injection, schedule: Q04DX003 (ip), vehicle: Klucel (hydroxypropylcellulose) (HPC)
  T/C: 105 % of control
[17]
  T/C: 94 % of control
dose: 100.0 mg/kg/injection, schedule: Q04DX003 (ip), vehicle: Klucel (hydroxypropylcellulose) (HPC)
  T/C: 100 % of control
[18]
  T/C: 94 % of control
dose: 200.0 mg/kg/injection, schedule: Q04DX003 (ip), vehicle: Klucel (hydroxypropylcellulose) (HPC)
  T/C: 106 % of control

## Cc1ccc(S(=O)(=O)OCCN(CCOS(=O)(=O)c2ccc(C)cc2)c2ccc(C=O)cc2)cc1
dose: 0.78 mg/kg/injection, schedule: Q04DX003 (ip), vehicle: saline with Tween-80
  T/C: 100 % of control
dose: 1.56 mg/kg/injection, schedule: Q04DX003 (ip), vehicle: saline with Tween-80
  T/C: 113 % of control
dose: 3.13 mg/kg/injection, schedule: Q04DX003 (ip), vehicle: saline with Tween-80
  T/C: 100 % of control
dose: 12.5 mg/kg/injection, schedule: Q04DX003 (ip), vehicle: saline with Tween-80
  T/C: 154 % of control
dose: 25.0 mg/kg/injection, schedule: Q04DX003 (ip), vehicle: saline with Tween-80
  T/C: 159 % of control
dose: 66.0 mg/kg/injection, schedule: Q04DX003 (ip), vehicle: saline with Tween-80
  T/C: 158 % of control
dose: 100.0 mg/kg/injection, schedule: Q04DX003 (ip), vehicle: saline with Tween-80
  T/C: 170 % of control and 172 % of control and 187 % of control
dose: 150.0 mg/kg/injection, schedule: Q04DX003 (ip), vehicle: saline with Tween-80
  T/C: 183 % of control
[12]
  T/C: 95 % of control
dose: 200.0 mg/kg/injection, schedule: Q04DX003 (ip), vehicle: saline with Tween-80
  T/C: 162 % of control

## CN(C)c1ccc(C(=C2C=CC(=[N+](C)C)C=C2)c2cc(S(=O)(=O)O)cc3cc(S(=O)(=O)O)ccc23)cc1
[14]
  T/C: 103 % of control
[15]
  T/C: 107 % of control
[16]
  T/C: 100 % of control

## Oc1c(Br)cc(Br)cc1/C=N/NC(=S)NC12CC3CC(CC(C3)C1)C2
dose: 30.0 mg/kg/injection, schedule: Q01DX005 (ip), vehicle: Klucel (hydroxypropylcellulose) (HPC)
  T/C: 87 % of control
dose: 60.0 mg/kg/injection, schedule: Q01DX005 (ip), vehicle: Klucel (hydroxypropylcellulose) (HPC)
  T/C: 87 % of control
dose: 120.0 mg/kg/injection, schedule: Q01DX005 (ip), vehicle: Klucel (hydroxypropylcellulose) (HPC)
  T/C: 88 % of control and 93 % of control
dose: 240.0 mg/kg/injection, schedule: Q01DX005 (ip), vehicle: Klucel (hydroxypropylcellulose) (HPC)
  T/C: 89 % of control

## Oc1ccccc1C=Nc1ccc2nc(SC3CCCC3)sc2c1
[10]
  T/C: 93 % of control
[17]
  T/C: 97 % of control
[18]
  T/C: 118 % of control

## CC(=O)c1sc(SSc2sc(C(C)=O)c(C)c2[N+](=O)[O-])c([N+](=O)[O-])c1C
dose: 100.0 mg/kg/injection, schedule: Q04DX002 (ip), vehicle: Klucel (hydroxypropylcellulose) (HPC)
  T/C: 91 % of control
dose: 200.0 mg/kg/injection, schedule: Q04DX002 (ip), vehicle: Klucel (hydroxypropylcellulose) (HPC)
  T/C: 89 % of control
dose: 400.0 mg/kg/injection, schedule: Q04DX002 (ip), vehicle: Klucel (hydroxypropylcellulose) (HPC)
  T/C: 86 % of control

## O=C1NC(=O)C(F)[CH]([Ge](=[O])[O][Ge](=[O])[CH]2NC(=O)NC(=O)C2F)N1 (stereo not given)
dose: 30.0 mg/kg/injection, schedule: Q04DX002 (ip), vehicle: water
  T/C: 100 % of control
dose: 60.0 mg/kg/injection, schedule: Q04DX002 (ip), vehicle: water
  T/C: 97 % of control
dose: 100.0 mg/kg/injection, schedule: Q04DX002 (ip), vehicle: water
  T/C: 91 % of control
dose: 120.0 mg/kg/injection, schedule: Q04DX002 (ip), vehicle: water
  T/C: 100 % of control
dose: 200.0 mg/kg/injection, schedule: Q04DX002 (ip), vehicle: water
  T/C: 92 % of control
dose: 240.0 mg/kg/injection, schedule: Q04DX002 (ip), vehicle: water
  T/C: 100 % of control

## Nc1nc2c(c(-c3nc(N)nc4c3CCC4)n1)CCC2
dose: 60.0 mg/kg/injection, schedule: Q01DX005 (ip), vehicle: saline
  T/C: 98 % of control
dose: 120.0 mg/kg/injection, schedule: Q01DX005 (ip), vehicle: saline
  T/C: 106 % of control
dose: 240.0 mg/kg/injection, schedule: Q01DX005 (ip), vehicle: saline
  T/C: 97 % of control

## Cc1nc(N)nc(N)c1CCCc1ccccc1
dose: 3.12 mg/kg/injection, schedule: Q01DX001 (ip), vehicle: Klucel (hydroxypropylcellulose) (HPC)
  T/C: 107 % of control
dose: 6.25 mg/kg/injection, schedule: Q01DX001 (ip), vehicle: Klucel (hydroxypropylcellulose) (HPC)
  T/C: 101 % of control
dose: 12.5 mg/kg/injection, schedule: Q01DX001 (ip), vehicle: Klucel (hydroxypropylcellulose) (HPC)
  T/C: 105 % of control
dose: 12.5 mg/kg/injection, schedule: Q01DX001 (ip), vehicle: saline
  T/C: 100 % of control

## COC(=O)C1c2ccccc2CC(=O)N1NC(=O)c1ccccc1 (stereo not given)
[10]
  T/C: 98 % of control
[17]
  T/C: 94 % of control

— PubChem BioAssay AID330 (DTP/NCI, 2004)
